Measurements reported in US5821224A, “Antimicrobial peptides from bovine neutrophils” (Regents of the University of California, priority 1994, dated 1998).
“Also recorded” adds a separate entry of the source. Bridges are numbered along the chain shown (N, C = ends). Where no end group is shown, it is not given here. [ ]: non-standard residue; d: D form. pGlu = O=C1CC[C@@H](C(=O)O)N1

Assays:
[1] = system: Cryptococcus neoformans 271A; assay: Fungicidal assay (colony counting), Cryptococcus neoformans 271A; type: cell-based; conditions: 60 minutes, FIG. 16; for fungicidal effectiveness against C. neoformans at highest concentration: 50 μg/ml; for fungicidal potency against C. neoformans: 0 to 50 μg/ml
Experimental: (§1) Candida albicans 16820 and Cryptococcus neoformans 271A were grown with shaking for 24 hours or days, respectively, at 37° C. in Sabouraud Dextrose Broth (SDB, DIFCO). To obtain midlogarithmic phase organisms, 1.0 ml of overnight culture was inoculated into 50 ml of SDB and incubated for 3 hours (C. albicans) or overnight (C. neoformans) with shaking. The cultures were centrifuged at 10,000 rpm for 10 minutes at 4° C., washed with cold 10 mM phosphate buffer, pH 7.4, and resuspended in cold buffer to a concentration of 1×10^7 cells/ml. The fungicidal assay mixture contained 30 1 of the phosphate buffer, 10 μl (1×10^5 cells) of the fungal stock suspension, and 10 μl of peptide giving final peptide concentrations of 0 to 50 μg/ml. Incubations were carried out at 37° C. for 60 minutes, after which a 30 μl aliquot was removed and diluted 10, 100, and 1000-fold. Duplicate 100 μl samples of each dilution were spread onto SDB plates and incubated for 18 hours at 37° C. Plates were incubated for 1 or 2 days at 37° C. Surviving organisms were quantitated by colony counting using a Darkfield Colony Counter (Quebec).

Escherichia coli ML35 = assay: Radial diffusion antibacterial assay, E. coli ML35; type: cell-based; conditions: 5 μl of peptide, 10 to 300 μg/ml, FIG. 7
Experimental: (§2) FIG. 7. Antibacterial activities of purified beta defensins. Nutrient agar plates seeded with E. coli ML35 (.oval-solid.) or S. aureus 502A (.smallcircle.) were used to assess antibacterial activity of 13 neutrophil beta-defensins in addition to rabbit defensin NP-1, bactenecin dodecapeptide, and indolicidin. Activity is expressed as the diameter of clearing (mm) resulting from the application of 5 μl of peptide at the concentrations shown.
(§3) Antimicrobial assay. Escherichia coli ML35 and Staphylococcus aureus 502A were utilized in a radial diffusion assay recently described by Lehrer et al. (J. Immunol. Meth. 167-173 (1991)). Bacteria were grown to mid-log phase in trypticase soy broth (TSB), diluted into 10 ml of warm (43° C.) 1% agarose containing 3 mg of TSB, buffered with 10 mM sodium phosphate, pH 7.4. Five μl of each peptide solution was pipetted into wells formed with a 4 mm cork bored and allowed to incubate at 37° C. for 3-4 hours. Plates were then overlaid with 10 ml of sterile 1% agar containing 2×TSB. Following incubation for 18 to 24 hours, the diameter of the clear zone surrounding each well was measured using a magnified transilluminator.
(§4) Antimicrobial activity of beta-defensins. The antibacterial activity of each beta-defensin was evaluated using Staphylococcus aureus 502A and Escherichia coil ML35 as test organisms. Using a sensitive radial diffusion assay, each peptide was tested against the two bacterial organisms with beta-defensin concentrations ranging from 10 to 300 μg/ml. The data presented in FIG. 7 reveal the dose-dependent activity of each peptide as measured by the size of the clear zone surrounding the sample well. In most cases, the log of the peptide concentration was linearly related to the diameter of the growth-free zone. […] In most cases, the zone of clearing was greater against E. coli than S. aureus.

[2] = system: Staphylococcus aureus 502A; assay: Radial diffusion antibacterial assay, S. aureus 502A; type: cell-based; conditions: 5 μl of peptide, 10 to 300 μg/ml, FIG. 7
Experimental: as §2, §3, §4

E. coli = conditions: background, earlier report; cited from earlier work
S. aureus = conditions: background, earlier report; cited from earlier work
E. coli ML35 = assay: Bactericidal assay (colony counting), E. coli ML35; type: cell-based, Escherichia coli; conditions: below 50 μg/ml, 30 minutes, FIG. 14
Experimental: A 1:500 dilution of overnight cultures of E. coli ML35 and S. aureus 502A was incubated with shaking for 2.5 to 3 hours at 37° C. in trypticase soy broth (TSB). The bacteria were centrifuged at 10,000 rpm for 10 minutes at 4 c, washed with cold 10 mM sodium phosphate buffer, pH 7.4 and resuspended in cold phosphate buffer to a concentration of 1×10^7 cells/ml. Solutions of various concentrations of BNBDs were made up in 10 mM sodium phosphate buffer, pH 7.4. The bactericidal assay mixture contained 30 μl of the phosphate buffer, 10 μl (1×10^5 cells) of the bacterial stock solution, and 10 μl of peptide giving final peptide concentrations of 0 to 50 μg/ml. Incubations were carried out at 37° C. for 30 minutes, after which a 30 μl aliquot was removed and diluted 10, 100, and 1000-fold. Duplicate 100 μl samples of each dilution were spread into TSB plates and incubated for 18 hours at 37° C. Colonies were counted with the Darkfield Colony Counter (Quebec).

Candida albicans 16820 = type: cell-based; conditions: 0 to 50 μg/ml, 60 minutes, FIG. 15
Experimental: as §1

Molecule | antibacterial activity (diameter of clearing) against E. coli (Escherichia coli ML35) | antibacterial activity (diameter of clearing) against S. aureus [2] | also measured
[pGlu]RVRNPQSCRWNMGVCIPFLCRVGMRQIGTCFGPRVPCCRR (disulfide 9-38, 16-31, 21-39) [BNBD-4] | – | – | fungicidal effectiveness against C. neoformans at highest concentration [1]: equally effective
BNBD-2: bovine neutrophil beta-defensin 2, 40 residues; identical to BNBD-3 without the pyroglutamyl-glycine extension (SEQ ID NO: 2) (VRNHVTCRINRGFCVPIRCPGRTRQIGTCFGPRIKCCRSW; disulfide 14-29, 19-37, 7-36) | equivalent antibacterial activity | equivalent antibacterial activity | –
H-SGISGPLSCGRNGGVCIPIRCPVPMRQIGTCFGRPVKCCRSW (disulfide 9-38, 16-31, 21-39) [BNBD-13] | most active beta-defensins; also recorded: approximately equal | most active beta-defensins; also recorded: approximately equal | fungicidal effectiveness against C. neoformans at highest concentration [1]: equally effective
BNBD-9: bovine neutrophil beta-defensin 9, 40 residues, N-terminal pyroglutamyl (SEQ ID NO: 9) ([pGlu]GVRNFVTCRINRGFCVPIRCPGHRRQIGTCLGPQIKCCR; also: cyclic, type of ring not given here) | most active beta-defensins; also recorded: the greater in vitro activity | most active beta-defensins; also recorded: the greater in vitro activity | –
CC[C@H](C)[C@H](N)C(=O)N[C@@H](CC(C)C)C(=O)N1CCC[C@H]1C(=O)N[C@@H](Cc1c[nH]c2ccccc12)C(=O)N[C@@H](CCCCN)C(=O)N[C@@H](Cc1c[nH]c2ccccc12)C(=O)N1CCC[C@H]1C(=O)N[C@@H](Cc1c[nH]c2ccccc12)C(=O)N[C@@H](Cc1c[nH]c2ccccc12)C(=O)N1CCC[C@H]1C(=O)N[C@@H](Cc1c[nH]c2ccccc12)C(=O)N[C@@H](CCCNC(=N)N)C(=O)N[C@@H](CCCNC(=N)N)C(N)=O [indolicidin, reference compound] | the most active peptide against E. coli | nearly as active as rabbit NP-1 | bactericidal activity against E. coli (E. coli): potent bactericidal activity; bactericidal activity against S. aureus (S. aureus): potent bactericidal activity
BNBD-5: bovine neutrophil beta-defensin 5, 40 residues (SEQ ID NO: 5) | – | all but BNBD-1 and BNBD-5 were active | –
[pGlu]GVRNHVTCRINRGFCVPIRCPGRTRQIGTCFGPRIKCCRSW (disulfide 9-38, 16-31, 21-39) [BNBD-3] | equivalent antibacterial activity | equivalent antibacterial activity | bactericidal potency against E. coli at lower concentrations (E. coli ML35): the greatest; fungicidal potency against C. neoformans [1]: the most potent
BNBD-12: bovine neutrophil beta-defensin 12, 38 residues; disulfide connectivities determined (SEQ ID NO: 12) (GPLSCGRNGGVCIPIRCPVPMRQIGTCFGRPVKCCRSW; disulfide 12-27, 17-35, 5-34) | most active beta-defensins; also recorded: approximately equal | most active beta-defensins; also recorded: approximately equal | –
BNBD-1: bovine neutrophil beta-defensin 1, 38 residues, purified from neutrophil granules; sequence in FIG. 5 (SEQ ID NO: 1) (DFASCHTNGGICLPNRCPGHMIQIGICFRPRVKCCRSW; not fully specified (bridges); ends and bridges not checked) | – | all but BNBD-1 and BNBD-5 were active | –
BNBD-7: bovine neutrophil beta-defensin 7, 40 residues (SEQ ID NO: 7) | most active beta-defensins | most active beta-defensins | –
BNBD-11: bovine neutrophil beta-defensin 11, 38 residues (SEQ ID NO: 11) (GPLSCRRNGGVCIPIRCPGPMRQIGTCFGRPVKCCRSW; disulfide 12-27, 17-35, 5-34; ends not checked) | – | – | fungicidal activity against C. albicans (Candida albicans 16820): completely inactive; fungicidal potency against C. neoformans [1]: substantially less active
BNBD-8: bovine neutrophil beta-defensin 8, 38 residues; identical to BNBD-9 without the pyroglutamyl-glycine extension (SEQ ID NO: 8) | differ in antibacterial potency | differ in antibacterial potency | –
